Measured values reported in US10780094B2, “Use of carbonic anhydrase inhibitors for treatment of neurological and psychiatric disorders” (New York University, priority 2016, dated 2020).

What was measured:
[1] = test system: mitochondrial CA; details: reference (16); cited from earlier work
[2] = references (44, 45); cited from earlier work
[3] = test system: D3 cerebral microvascular endothelial cells; assay: TMRM assay of mitochondrial membrane potential (ΔΨ); assay type: cell-based, human; details: 40 μM FCCP
Procedure: (§1) Briefly, cells were plated on 25 mm optical borosilicate poly-L-lysine-coated sterile glass covers (ThermoFisher, Waltham, Mass., US) at a 70% confluence. The day after, cells were washed twice with HBSS and charged with 600 nM TMRM on HBSS. Cells were then incubated for 20 min in the incubator, at 37° C. and washed again with HBSS. After that, the medium was replaced by HBSS containing 150 nM of tetramethylrhodamine methyl ester (TMRM), in order to maintain the equilibrium distribution of the fluorophore. Cells were then mounted on Sykes-Moores chambers (BellCo, Vineland, N.J., US) and treated with the different drugs and/or peptides. An image was taken at minute 0 and at minute 45, after adding the drugs and/or peptides. In this experiment, the peptide was pre-aggregated as above before adding it to the cells.

[4] = test system: SH-SY5Y neuronal cells; assay: as above; assay type: cell-based, human; details: 40 μM FCCP
Procedure: as §1

[5] = test system: D3 cells; assay: Mitochondrial and cytoplasmic calcium assay (Rhod-2 AM, Fluo-4 AM); assay type: cell-based, human; details: Ionomycin 5 μM at the end of the experiments
Procedure: (§2) This assay was performed as published in [60]. Briefly, cells were plated on 25 mm optical borosilicate poly-L-lysine-coated sterile glass covers, (ThermoFisher, Waltham, Mass., US) at a 70% confluence. 24 hours later, cells were loaded with 5 μM Rhod-2 AM or 2.5 μM Fluo-4 AM on HBSS for 45 minutes. Then, cells were washed twice with HBSS and incubated for another additional 15 minutes on fresh HBSS, without Rhod-2 AM or Fluo-4 AM. After that, HBSS was replaced again by fresh HBSS, glasses were mounted on microscopy chambers and experiments were conducted, after adding the pre-aggregated peptides and/or the drugs. Cells were mounted on Sykes-Moores chambers (BellCo, Vineland, N.J., US) and imaged every 15 seconds for 45 min, at a 20× magnification, using a Nikon fluorescent microscope (Chiyoda, Tokyo, Japan). Images were processed using NIS-Elements and ImageJ software. Due to the rapidity of this experiment, the peptide was pre-aggregated as described above to obtain oligomers before being added to the cells.

[6] = test system: SH-SY5Y cells; assay: as above; assay type: cell-based, human; details: Ionomycin 5 μM at the end of the experiments
Procedure: as §2

[7] = test system: D3 cells; assay: ATP measurement (CellTiter-Glo); assay type: cell-based, human
Procedure: (§3) Steady state levels of ATP were estimated using the Cell Titter-Glo, according to manufacturer's instructions. Briefly, 5×10^3 cells per well of both D3 and SHSY cells were plated on 96-wells plates. The day after, cells were treated with either 10 μM Q22 or 50 μM Ab42 peptides, respectively. Peptides were added alone or in combination with increasing concentrations of MTZ (100 and 300 μM) or AZT (30 and 300 μM). Controls were treated with either DMSO or 5 μM oligomycin. After 3 hours of treatment, the plates containing the cells were equilibrated to room temperature for 30 minutes prior to addition of the luciferin/luciferase/cell lysis mixture. Absolute luminescence from quadruplicate experiments was recorded using a SpectraMax plate reader (Molecular Devices, Sunnyvalem Calif., US).

[8] = test system: SH-SY5Y cells; assay: ATP measurement (CellTiter-Glo); assay type: cell-based, human; details: oligomycin 5 μM control; p<0.0001
Procedure: as §3

[9] = test system: caspase 9 in SH-SY5Y neuronal cells; assay: Caspase-Glo 9 activity after Aβ challenge; assay type: cell-based, human; details: 10 μM Aβ42; 24 hours; no drug
Procedure: (§4) Caspase 9 and caspase 3/7 activation was measured by luminescent assays (Caspase-Glo 9 and caspase-Glo 3/7, Promega, Madison, Wis.), in cells treated with the Aβ peptides in DMEM without FBS. Briefly, 10,000 cells/well were plated in 96 wells plates and incubated for 24 hours with the freshly solubilized Aβ peptides. Caspase-Glo reagent was added to the cell cultures resulting in cell lysis, followed by caspase cleavage of the substrate and generation of a luminescent signal produced by the luciferase reaction. After 40 minutes incubation, the amount of caspase activity was evaluated in a plate-reading luminometer (Synergy HT Multi-Mode Microplate Reader, Biotek, Winooski, Vt.) as described in (Fossati et al., 2012b). To inhibit non-specific background activity, the proteasome inhibitor MG-132 was added to the Caspase-Glo reagent before the experiment as indicated by the manufacturer. In all cases results are expressed as fold-change compared to untreated control cells.
Cells were plated at a confluence of 10.000 cells per well in 96-wells microplate luminescence microtiter (ThermoFisher, Waltham, Mass., US). The day after, cells were treated with the peptides and/or drugs for the experimental times. After that, caspase-Glo 9 assay was performed, following the protocol provided from the manufacturer. Luminescence was measured using a FlexStation 3 Multi-Mode Microplate Reader (Molecular devices, Sunnyvalem Calif., US).

[10] = test system: caspase 9 in glial cells; assay: Caspase-Glo 9 activity after Aβ challenge; assay type: cell-based, human; details: 10 μM Aβ42; 24 hours; no drug
Procedure: as §4

Compound: CCOc1ccc2nc(S(N)(=O)=O)sc2c1 [ETZ, ethoxzolamide]
- activity on mitochondrial CA [1]: high activity
- ROS formation and cell death induced by high glucose [2]: inhibit ROS formation and cell death

Compound: N#CC(C#N)=NNc1ccc(OC(F)(F)F)cc1 [FCCP, p-trifluoromethoxyphenylhydrazone]
- mitochondrial depolarization after treatment with drugs and peptides [3]: further depolarized
- mitochondrial depolarization after treatment with drugs and peptides [4]: further depolarized

Compound: C[C@H](CCC(=O)O)C[C@H](C)C[C@H](C)C(=O)/C=C(\O)[C@H](C)C[C@H](C)C/C=C/[C@@H](C)[C@@H](O)[C@@H](C)[C@@H](O)C[C@@H]1CC[C@@](C)([C@H]2CC[C@@](C)([C@@H](C)O)O2)O1 [Ionomycin]
- mitochondrial and cytoplasmic calcium levels [5]: increase in mitochondrial and cytoplasmic calcium levels
- mitochondrial and cytoplasmic calcium levels [6]: increase in mitochondrial and cytoplasmic calcium levels

Compound: CC[C@H]1/C=C/C=C/C[C@@H](C)[C@H](O)[C@@](C)(O)C(=O)[C@@H](C)[C@H](O)[C@@H](C)C(=O)[C@@H](C)[C@H](O)[C@@H](C)/C=C/C(=O)O[C@@H]2[C@H](C)[C@H](CC1)O[C@]1(CC[C@H](C)[C@H](C[C@@H](C)O)O1)[C@H]2C [oligomycin]
- increase in ATP luminescence ([7]; oligomycin 5 μM, p=0.0002): 32.4%
- decrease in ATP levels [8]: 34%

Compound: Aβ40-Q22: Synthetic Aβ40, the Dutch genetic variant, containing the E22Q substitution
- increase in steady state ATP levels ([7]; peptide alone, p=0.001): 21.6%

Compound: Aβ42: Synthetic homologue of the amyloid subunit Aβ42, used to challenge cells
- caspase 9 activation increase compared to control cells [9]: about 1.5 times
- caspase 9 activation increase compared to control cells [10]: about 1.5 times
